Experiments:
Format in all cases: cell-based
[1] = tested on: human TUBA1B locus; experiment: Knock-in Strategy V1: eGFP knock-in at TUBA1B, puromycin single selection, FACS screen of clones for FITC signal; conditions: HEK293A
Protocol: In the Knock-in Strategy V1, a Cas9-encoding plasmid comprising a puromycin-resistance cassette was co-transfected with a circular donor plasmid without a selection marker as well as specific synthetic crRNA and tracrRNA. The selection was carried out exclusively with puromycin on the Cas9-encoding plasmid.
In the first knock-in strategy, the cells were transfected with the Cas9-PuroR plasmid, the circular donor plasmid, as well as specific, synthetic crRNA and tracrRNA. The selection was made exclusively on the Cas9 plasmid with puromycin for 10 days. Thereafter, single cells of the cells transfected with crRNA1 (SEQ ID NO: 07) or crRNA2 (SEQ ID NO: 08), respectively, were deposited in ten 96-well plates. […] The increased FITC signal can be attributed to the expression of eGFP, which is only possible if the eGFP sequence from the donor plasmid has been introduced in-frame into a translated region in the genome, since the start codon is missing.
The growth rate of the deposited single cells was determined microscopically after 3 weeks, and totaled 63%. Subsequently, the cells by FACS were analyzed for their FITC signal (results in Table 1).
(§1) Using FACS sorting, the transfected and partially already selected cells were sorted. These were harvested, washed with PBS and adjusted to a cell number of 1×10^6 cells/mL in FACS buffer. After the desired cell population had been gated and all settings made on the device for sorting, the selected cells could be […]. The single cell deposit was performed in 96-well format. The plates were stored with 200 μL of medium per well at 37° C. in order to temper the medium and to keep the cell's stress as low as possible. Each knock-in trial involved deposition in between 20 and 24 plates. The cells then needed about 3 weeks in the incubator at 37° C. and 5% CO2 for growth. All plates were analyzed microscopically to determine the growth rate and the clones were then examined for eGFP expression.
(§2) The methodology was used primarily for the screening of the generated clones. For this purpose, the medium was completely removed from the 96-well plates, the cells were detached with 25 μL Accutase and resuspended with 40 μL FACS buffer. 40 μL of cell suspension was transferred to a 96-well conical-bottomed plate and measured directly on the FACS Canto II from BD. The eGFP signals of the clones were always referenced with HEK293A wild-type cells. The evaluation was done with the FlowJo v10.0.7 software. Potentially positive clones with a distinct eGFP signal were expanded and further characterized.

[2] = tested on: human TUBA1B locus; experiment: Knock-in Strategy V2: eGFP knock-in at TUBA1B, puromycin and hygromycin B double selection, FACS screen of clones for FITC signal; conditions: for Efficiency (potentially positive clones / clones examined) / Number of potential clones (total number of examined clones in parentheses): HEK293A
Protocol: In the Knock-in Strategy V2, a Cas9-encoding plasmid comprising a puromycin-resistance cassette was co-transfected with a circular donor plasmid with a hygromycin B-resistance cassette as well as specific, synthetic crRNA and tracrRNA. The selection was carried out as double selection with hygromycin B for the donor plasmid and puromycin for the Cas9-encoding plasmid.
In the Knock-in Strategy V2, the cells were transfected with the identical crRNAs and tracrRNAs, as well as the Cas9-PuroR plasmid as in the Knock-in Strategy V1. Each of the three crRNAs (SEQ ID NO: 07-09) was combined with the linearized or circular donor plasmid with the hygromycin B-resistance cassette. Selection was performed via puromycin for the Cas9 plasmid and hygromycin B for the donor plasmid for a total of 10 days. Four 96-well plates with FITC-positive, viable single cells were subsequently deposited from each transfection. Differences in the FITC signal between the wild-type and the transfected cells were evident in the enlarged view of the histograms. The proportion of FITC-positive cells was between 0.4% and 3.8%. […] The most intense signal was found in the sample of crRNA3 and the circular donor plasmid (FIG. 13).
After a three-week incubation in the incubator, the growth rate of the deposited single cells was determined microscopically. It averaged 34.3%. All grown clones were analyzed by FACS for their FITC signal. An eGFP expression in the cells leads to the detection of an increased FITC signal compared to the wild-type, i.e. non-transfected cells. A total of 118 potentially positive clones were identified from a total of 496 analyzed clones. This corresponded to an overall efficiency of […]. The proportion of potentially positive clones among the samples containing the circular donor plasmid was 33.3%, more than twice as high as that for the linearized donor plasmid at 15.3% (Table 4).
as §1, §2

[3] = tested on: human TUBA1B locus; experiment: Knock-in Strategy V3: eGFP knock-in at TUBA1B, CD4 pool sorting and hygromycin B selection, FACS screen of clones for FITC signal; conditions: HEK293A
Protocol: In the Knock-in Strategy V3, the Cas9 nuclease and the sgRNA were combined on a single plasmid. This additionally contained a CD4 marker for selection. The donor plasmid corresponded to that of the strategy V2. Thus, the double selection was carried out via hygromycin B for the donor plasmid, as well as for CD4 for the nuclease/gRNA plasmid.
In the Knock-in Strategy V3, the cells were transfected with the circular or linear donor plasmid and a pCas-Guide EF1α-CD4 plasmid. This plasmid, referred to as “all-in-one”, encodes the Cas9 nuclease, a gRNA and CD4. The selection was made in this strategy via hygromycin B for the donor plasmid, and with CD4 for the Cas9 nuclease and the gRNA. Three different pCas-Guide-EF1α-CD4 plasmids were used, each coding for one of the three gRNAs. […] About 48 hours after transfection, the cells were stained with an APC-conjugated anti-CD4 antibody. HEK293A wild-type cells natively express no CD4, so these cells defined the APC negative gate. Only cells that had taken up the pCas-Guide-EF1α-CD4 plasmid expressed CD4 on the cell surface, which was detectable by FACS via the elevated APC signal after staining with the antibody. […] The transfected cells are between 63% and 86% in the APC positive gate. Comparing the samples with linear and circular donor plasmid from each gRNA, it was possible to see that proportionally more APC and, thus, CD4 positive cells were detected in the samples with the circular donor plasmid. From each transfection approximately 5×10^5 CD4 positive cells were deposited as a cell pool using FACS sorting (FIG. 16).
The cells were cultured after pool sorting for 24 h in 6-well plates. Next, selection with hygromycin B was performed for the donor plasmid for 10 days. Subsequently, single cells from each transfection were deposited in four 96-well plates. Differences in the FITC signal between the wild-type and the transfected samples were evident in the enlarged view of the histograms. […] Gating on FITC-positive cells was therefore almost impossible. To the extent possible, viable single cells were deposited from the FITC-positive gate (FIG. 17).
Three weeks after single cell deposition, the first screening of the clones for the FITC signal followed and, thus, the presence of eGFP in the FACS. Previously, an average growth rate of 43% had been determined microscopically. A total of 952 clones were screened, of which 33 were identified as potentially positive clones. This corresponded to an efficiency of 3.4%. No clones could be identified in the three samples 1L, 3L and 3Z. Again, it was possible to see that the circular donor plasmid samples yielded more potentially positive clones than did samples with the linearized donor plasmid (Table 7).
In the knock-in V3, the pCas9-Guide-EF1α-CD4 plasmid contains a CD4 cassette as a selection marker. To select the CD4-positive cells, the cells were harvested 48 hours after transfection and washed twice with PBS. Next, the cells were resuspended in 250 μL FACS buffer and 5 μL α-CD4-Alexa 647 antibody added. This corresponded to a final antibody concentration of 1.5 μg/mL. After one hour of incubation on ice in the dark, the cells were washed three times with FACS buffer and then measured. For pool sorting, approximately 1.5×10^5 CD4-positive cells per sample were sorted into a 15 mL Falcon in which 5 mL of complete medium had already been placed. Subsequently, the cells were centrifuged for 5 min. at 300 g, resuspended in 3 mL fresh complete medium and seeded into a 6-well plate. After 24 hours the cells were again adherent and could be selected with hygromycin B on the donor plasmid. Once the selected cells had matured, the single-cell deposition in the 96-well format was again carried out.
The methodology was used primarily for the screening of the generated clones. For this purpose, the medium was completely removed from the 96-well plates, the cells were detached with 25 μL Accutase and resuspended with 40 μL FACS buffer. […]

[4] = Plates from gate P3, circular donor plasmid
[5] = Plates from gate P4 (FITC-positive), circular donor plasmid

Row | Substance | Efficiency (potentially positive clones / clones examined) [1, 4] [%] | Number of potentially positive clones (total number of examined clones in parentheses) [1, 4] | Efficiency (potentially positive clones / clones examined) [1, 5] [%] | Number of potentially positive clones (total number of examined clones in parentheses) [1, 5] | Efficiency (potentially positive clones / clones examined) ([2]; Circular donor plasmid) [%] | Number of potential clones (total number of examined clones in parentheses) ([2]; Circular donor plasmid) | Efficiency (potentially positive clones / clones examined) ([2]; Linear donor plasmid) [%] | Number of potential clones (total number of examined clones in parentheses) ([2]; Linear donor plasmid) | cells of the clones in the FITC-positive range ([2]; clones with circular donor plasmid, after long-term cultivation, FACS) | Efficiency (potential clones / clones examined) ([3]; Circular donor plasmid) [%] | Number of potential clones (total number of examined clones in parentheses) ([3]; Circular donor plasmid) | Efficiency (potential clones / clones examined) ([3]; Linear donor plasmid) [%] | Number of potential clones (total number of examined clones in parentheses) ([3]; Linear donor plasmid)
1 | crRNA1: TUBA1B-specific synthetic crRNA (Dharmacon), SEQ ID NO: 07, GAGTGCATCTCCATCCACGT (synthetic crRNA bought from a supplier, chemistry not given here) | 0.44 | 2 (452) | 16.1 | 11 (68) | 53.3 | 40 (75) | 7.2 | 7 (97) | – | – | – | – | –
2 | crRNA2: TUBA1B-specific synthetic crRNA (Dharmacon), SEQ ID NO: 08, GGCCAGGCTGGTGTCCAGAT (synthetic crRNA bought from a supplier, chemistry not given here) | 0.25 | 1 (399) | 14.7 | 9 (64) | 1 | 1 (98) | 0 | 0 (81) | – | – | – | – | –
3 | crRNA3: TUBA1B-specific synthetic crRNA (Dharmacon), SEQ ID NO: 09, GAGCTCTACTGCCTGGAACA (synthetic crRNA bought from a supplier, chemistry not given here) | – | – | – | – | 60.7 | 37 (61) | 39.3 | 33 (84) | over 87% | – | – | – | –
4 | gRNA1: TUBA1B-specific gRNA encoded on the pCas-Guide-EF1α-CD4 all-in-one plasmid, oligos SEQ ID NO: 01 and 02 (DNA 1 GATCGGAGTGCATCTCCATCCACGTG; DNA 2 AAAACACGTGGATGGAGATGCACTCC; the letters are possibly those of the target site) | – | – | – | – | – | – | – | – | – | 19.4 | 12 (62) | 0 | 0 (195)
5 | gRNA2: TUBA1B-specific gRNA encoded on the pCas-Guide-EF1α-CD4 all-in-one plasmid, oligos SEQ ID NO: 03 and 04 (DNA 1 GATCGGGCCAGGCTGGTGTCCAGATG; DNA 2 AAAACATCTGGACACCAGCCTGGCCC; the letters are possibly those of the target site) | – | – | – | – | – | – | – | – | – | 6.5 | 14 (214) | 3.6 | 7 (195)
6 | gRNA3: TUBA1B-specific gRNA encoded on the pCas-Guide-EF1α-CD4 all-in-one plasmid, oligos SEQ ID NO: 05 and 06 (DNA 1 GATCGGAGCTCTACTGCCTGGAACAG; DNA 2 AAAACTGTTCCAGGCAGTAGAGCTCC; the letters are possibly those of the target site) | – | – | – | – | – | – | – | – | – | 0 | 0 (105) | 0 | 0 (212)
